Entries after “also recorded” stand apart in the source; their conditions may differ. Square brackets hold non-standard residues; d marks the D form. Primed or numbered codes have the meaning given here. PEG7′ = (PEG)7 moiety; Ava = NCCCCC(=O)O; βAla = NCCC(=O)O
Key:
A375/Luc cells = assay: Cellular delivery of siRNA targeting Luciferase, luciferase silencing at 48 hrs; assay type: cell-based; details: 50% or 100% ADGN-100 PEG
Experimental: FIGS. 3A-3C show luciferase expression in A375/Luc cells treated with ADGN-peptide/siRNA complexes. A375/Luc cells cultured in 48 well plates were transfected with ADGN-peptide nanoparticles. ADGN-100, ADGN-106, ADGN-100RI, ADGN-106RI, ADGN-100 Stearyl, ADGN-Hydro1, ADGN-Hydro2, ADGN-Hydro3, ADGN-Hydro4, ADGN-Hydro5, ADGN-Hydro6 and ADGN-peptide/ADGN-100PEG 10% nanoparticles containing 10 nM or 25 nM siRNA were formed in sterile water, diluted in sterile water containing 5% Sucrose and filtered with 0.45 μm PES filters. FIG. 3C impact of peGylated ADGN-100 on the transfection efficiency. siRNA Luc (10 nM and 25 nM) were associated to ADGN-100 solution containing 5 to 50% of ADGN-100-PEG or to ADGN-100PEG. ADGN/siRNA complexes were incubated for 3 hrs in the presence of 25% serum prior transfection. Luciferase expression was monitored 48 hours post transfection and results were reported as RLU (luminescence):mg of protein.
(§1) Complex formation with siRNA. The following protocols were used for the transfection of 2-5 106 Cells or Cells at confluency of about 70-80% cultured in 24 well plates. ADGN peptide/siRNA Luc particles were prepared at a 20:1 molar ratio of ADGN-Peptide/pGL4. using 20 nM siRNA. The siRNA duplex (10 and 25 nM) was diluted in 20 μl of sterile water (GIBCO) at room temperature. 1.5 or 3 μl of a Final Peptide Solution (55 μM) was added to obtain a total volume of 20 μl. The volume was adjusted to 50 μl with sterile water and was mixed gently with vortex 1 min low speed and incubated 30 min at room temperature. Then the volume was made up to 100 μl by adding sterile water containing 5% sucrose, and the solution was mixed gently with vortex 1 min low speed and incubate 5 min at 37° C. and then was proceeded to cell transfection.
(§2) Transfection protocol. Protocol is reported for 24 well plate format. Cells were cultured in Dulbecco's Modified Eagle's Medium (DMEM), supplemented with 2 mM glutamine, 1% antibiotics (streptomycin 10,000 μg/mL, penicillin, 10,000 IU/mL) and 10% (w/v) foetal calf serum (FCS), at 37° C. in a humidified atmosphere containing 5% CO2. 24 well plates seeded with 150,000 cells the day prior to transfection were grown to 50-60% confluence and set up to be at about 70% confluences at the time of transfection. Before transfection, cells were washed twice with DMEM. Cells were then overlaid with 0.1 ml of ADGN-peptide/cargo complex solution containing 0.25 μg mRNA, 0.15 μg plasmid DNA or 10-25 nM siRNA, mixed gently, and incubated for 10 min at 37° C. 0.2 mL of fresh DMEM, were added and cells were incubated for 20 min at 37° C. 1 mL of complete DMEM containing 15% FCS were then added in order to reach a final FCS concentration of 10%, without removing the overlay of ADGN-peptide/cargo complexes. Cells were returned to the incubator (37° C., 5% CO2) and 72 hrs post transfection.
ADGN-peptides were evaluated for cellular delivery of siRNA duplex targeting Luciferase in A375/Luc cells. siRNA targeting luciferase (10 and 25 nM) in sterile water (GIBCO) were mixed with ADGN-100, ADGN-100RI, ADGN-106, ADGN-106RI, ADGN-100 Stearyl, ADGN-100Hydro1, ADGN-100Hydro2, ADGN-100Hydro4, ADGN-100Hydro3, ADGN-100Hydro5 and ADGN-100Hydro6. ADGN-peptide/siRNA complexes were filtered with 0.45 μm PES filter. In order to evaluate the stability of the ADGN/siRNA complexes in high serum conditions, the complexes were incubated for 3 hrs in the presence of 25% serum, then A375/Luc cells were transfected and Luciferase expression was monitored at 48 hrs.

293T cells = assay: Cellular delivery of pGL4 plasmid DNA expressing Luciferase, luciferase expression at 72 hrs; assay type: cell-based; details: for reduction of efficiency / luciferase expression in the presence of serum: complexes incubated 3 hrs in 25% serum prior transfection; for reduction of efficiency / luciferase expression in the presence of serum / reduction of efficiency / luciferase expression in heparan sulfate: pGL4 plasmid; for reduction of efficiency / luciferase expression in heparan sulfate: complexes incubated 3 hrs with heparan sulfate prior transfection
Experimental: FIGS. 2A-2C show luciferase expression in 293T cells treated with ADGN-peptide/pGL4 plasmid DNA complexes. 293T cells cultured in 48 well plates were transfected with ADGN-peptide nanoparticles. ADGN-100, ADGN-106, ADGN-100RI, ADGN-106RI, ADGN-100 Stearyl, ADGN-Hydro1, ADGN-Hydro2, ADGN-Hydro3, ADGN-Hydro4, ADGN-Hydro5, and ADGN-Hydro6 containing 0.17 μg pGL4 plasmid DNA were formed in sterile water, diluted in sterile water containing 5% Sucrose. ADGN-peptide nanoparticles were evaluated prior (FIG. 2A) and after filtration with 0.45 μm PES filters (FIG. 2B). FIG. 2C impact of peGylated ADGN-100 on the transfection efficiency. pGL4 luc plasmid (0.15 μg) were associated to ADGN-100 solution containing 5 to 50% of ADGN-100-PEG or to ADGN-100PEG. ADGN/pGL4 plasmid DNA complexes were incubated for 3 hrs in the presence of either 25% serum or heparan sulfate prior transfection. Luciferase expression was monitored 72 hours post transfection and results were reported as RLU (luminescence):mg of protein.
as §1, with “plasmid DNA.” for “siRNA.”, “peptide/plasmid DNA pGL4” for “peptide/siRNA Luc”, “(0.2 μg). PGL4 plasmid (0.15 μg)” for “20 nM siRNA. The siRNA duplex (10 and 25 nM)”, “10” for “1.5 or 3”, “μl” for “μl of a”, “Solution” for “Solution (55 μM)”
as §2
ADGN-peptides were evaluated for cellular delivery of pGL4 plasmid DNA expressing Luciferase in 293T cells. Luc pGL4 plasmid (0.15 μg) in sterile water (GIBCO) were mixed with ADGN-100, ADGN-100RI, ADGN-106, ADGN-106RI, ADGN-100 Stearyl, ADGN-100Hydro1, ADGN-100Hydro2, ADGN-100Hydro4, ADGN-100Hydro3, ADGN-100Hydro5 and ADGN-100Hydro6. ADGN-peptide/mRNA complexes were filtered with 0.45 μm PES filter. In order to evaluate the stability of the ADGN/pGL4 plasmid complexes in high serum and cell culture conditions, the complexes were incubated for 3 hrs in the presence of either 25% serum or heparan sulfate prior transfection, then 293T cells were transfected and Luciferase expression was monitored at 72 hrs.

mice or rat models = assay: Summary of cargo delivery to targeted organ (Table 1); assay type: in vivo; details: cargoes and route (IV, IM, SQ, NB) per peptide as listed in Table 1
Text: Table 1 lists a summary of cell-penetrating peptides that have been proven successful in delivering various cargo molecules to on or more targeted organ (e.g., by intravenous (IV), intramuscular (IM), or subcutaneous (SQ) administration, or intratraccheal instillation or nebulization (NB)) in mice or rat models.

Row | Substance | reduction of transfection efficiency (A375/Luc cells) [%] | reduction of level of Luciferase expression (293T cells; 50% or 100% ADGN-100 PEG, pGL4 plasmid 0.15 μg) [%] | Targeted Organ (mice or rat models) | reduction of efficiency / luciferase expression in the presence of serum (293T cells) | reduction of efficiency / luciferase expression in heparan sulfate (293T cells)
1 | Ac-(PEG)7-βA-KWRSALWRWRLWRVRSWSR-NH2 ({Ac-PEG7′}-[βAla]KWRSALWRWRLWRVRSWSR-NH2) [ADGN-100-PEG7] | 80 | 80 | – | – | –
2 | Ac-GYVS-Ava-KWRSALWRWRLWRVRSWSR-NH2 (Ac-GYVS[Ava]KWRSALWRWRLWRVRSWSR-NH2; SMILES CC(=O)NCC(=O)N[C@@H](Cc1ccc(O)cc1)C(=O)N[C@H](C(=O)N[C@@H](CO)C(=O)NCCCCC(=O)N[C@@H](CCCCN)C(=O)N[C@@H](Cc1c[nH]c2ccccc12)C(=O)N[C@@H](CCCNC(=N)N)C(=O)N[C@@H](CO)C(=O)N[C@@H](C)C(=O)N[C@@H](CC(C)C)C(=O)N[C@@H](Cc1c[nH]c2ccccc12)C(=O)N[C@@H](CCCNC(=N)N)C(=O)N[C@@H](Cc1c[nH]c2ccccc12)C(=O)N[C@@H](CCCNC(=N)N)C(=O)N[C@@H](CC(C)C)C(=O)N[C@@H](Cc1c[nH]c2ccccc12)C(=O)N[C@@H](CCCNC(=N)N)C(=O)N[C@H](C(=O)N[C@@H](CCCNC(=N)N)C(=O)N[C@@H](CO)C(=O)N[C@@H](Cc1c[nH]c2ccccc12)C(=O)N[C@@H](CO)C(=O)N[C@@H](CCCNC(=N)N)C(N)=O)C(C)C)C(C)C) [ADGN-100 hydro-4] | – | – | Liver/Lung/; also recorded: Kidney/Spleen | do not significantly improved transfection | do not significantly improved transfection
3 | Ac-YIGSR-Ava-KWRSALWRWRLWRVRSWSR-NH2 (Ac-YIGSR[Ava]KWRSALWRWRLWRVRSWSR-NH2; SMILES CC[C@H](C)[C@H](NC(=O)[C@H](Cc1ccc(O)cc1)NC(C)=O)C(=O)NCC(=O)N[C@@H](CO)C(=O)N[C@@H](CCCNC(=N)N)C(=O)NCCCCC(=O)N[C@@H](CCCCN)C(=O)N[C@@H](Cc1c[nH]c2ccccc12)C(=O)N[C@@H](CCCNC(=N)N)C(=O)N[C@@H](CO)C(=O)N[C@@H](C)C(=O)N[C@@H](CC(C)C)C(=O)N[C@@H](Cc1c[nH]c2ccccc12)C(=O)N[C@@H](CCCNC(=N)N)C(=O)N[C@@H](Cc1c[nH]c2ccccc12)C(=O)N[C@@H](CCCNC(=N)N)C(=O)N[C@@H](CC(C)C)C(=O)N[C@@H](Cc1c[nH]c2ccccc12)C(=O)N[C@@H](CCCNC(=N)N)C(=O)N[C@H](C(=O)N[C@@H](CCCNC(=N)N)C(=O)N[C@@H](CO)C(=O)N[C@@H](Cc1c[nH]c2ccccc12)C(=O)N[C@@H](CO)C(=O)N[C@@H](CCCNC(=N)N)C(N)=O)C(C)C) [ADGN-100-Hydro-3] | – | – | Tumor/Lung | do not significantly improved transfection | do not significantly improved transfection

Source: patent publication US12357695B2, “Peptides and nanoparticles for intracellular delivery of molecules” (AADIGEN, LLC, priority 2019, dated 2025)
